Test results as given in the CheMixHub drug solubility set.

Assay: xn = mol fraction of the nth substance listed, in the solute-free solvent

O=[N+]([O-])c1cc[nH]n1 + CO + O
solubility (g/100 g solution)
Settings | 283.15 K | 288.15 K | 293.15 K | 298.15 K | 303.15 K | 308.15 K | 313.15 K | 318.15 K | 323.15 K
x2 = 0.05881 | 0.466 | 0.609 | 0.793 | 1.01 | 1.33 | 1.69 | 2.27 | 2.94 | 3.85
x2 = 0.1233 | 0.564 | 0.712 | 0.875 | 1.08 | 1.38 | 1.73 | 2.29 | 2.92 | 3.79
x2 = 0.1942 | 0.925 | 1.17 | 1.41 | 1.73 | 2.13 | 2.68 | 3.46 | 4.36 | 5.66
x2 = 0.2727 | 1.15 | 1.42 | 1.77 | 2.15 | 2.73 | 3.42 | 4.48 | 5.7 | 7.33
x2 = 0.3599 | 1.39 | 1.69 | 2.12 | 2.57 | 3.22 | 4.01 | 5 | 6.42 | 8.34
x2 = 0.4576 | 1.45 | 1.83 | 2.28 | 2.77 | 3.46 | 4.3 | 5.39 | 6.94 | 8.92
x2 = 0.5675 | 1.51 | 1.85 | 2.27 | 2.8 | 3.45 | 4.33 | 5.46 | 6.85 | 8.68
x2 = 0.6923 | 1.5 | 1.84 | 2.25 | 2.74 | 3.41 | 4.19 | 5.28 | 6.7 | 8.39
x2 = 0.835 | 1.44 | 1.82 | 2.25 | 2.79 | 3.66 | 4.99 | 6.1 | 7.64 | 9.23

CN1CCN(C(=O)OC2c3nccnc3C(=O)N2c2ccc(Cl)cn2)CC1 (configuration not stated) + CC(C)=O + O
solubility (g/100 g solution)
Settings | x2 = 0.3 | x2 = 0.4 | x2 = 0.5 | x2 = 0.6 | x2 = 0.7 | x2 = 0.8 | x2 = 0.9
288.15 K | 0.188 | 0.322 | 0.515 | 0.825 | 1.17 | 1.47 | 1.48
298.15 K | 0.259 | 0.425 | 0.644 | 1.04 | 1.52 | 1.9 | 1.94
308.15 K | 0.354 | 0.615 | 1.04 | 1.46 | 1.99 | 2.44 | 2.5
318.15 K | 0.545 | 0.801 | 1.35 | 1.88 | 2.53 | 3.29 | 3.5
328.15 K | 0.752 | 1.18 | 1.75 | 2.51 | 3.5 | 4.63 | 4.6

COC(=O)C1=C(C)NC(C)=C(C(=O)OCC(C)C)C1c1ccccc1[N+](=O)[O-] (configuration not stated) + CCCO + O
solubility (g/100 g solution)
Settings | 278.15 K | 283.15 K | 288.15 K | 293.15 K | 298.15 K | 303.15 K | 308.15 K | 313.15 K | 318.15 K
x2 = 0.03225 | 0.131 | 0.174 | 0.219 | 0.268 | 0.346 | 0.422 | 0.526 | 0.638 | 0.78
x2 = 0.06974 | 0.532 | 0.647 | 0.806 | 0.96 | 1.16 | 1.37 | 1.62 | 1.92 | 2.23
x2 = 0.1139 | 0.997 | 1.25 | 1.49 | 1.81 | 2.21 | 2.6 | 3.12 | 3.63 | 4.27
x2 = 0.1666 | 1.41 | 1.75 | 2.12 | 2.56 | 3.1 | 3.6 | 4.37 | 5.07 | 5.97
x2 = 0.2307 | 1.69 | 2.05 | 2.52 | 3.08 | 3.7 | 4.42 | 5.22 | 6.16 | 7.24
x2 = 0.3103 | 2.02 | 2.49 | 2.99 | 3.59 | 4.3 | 5.12 | 6.03 | 7.01 | 8.15
x2 = 0.4117 | 2.29 | 2.82 | 3.37 | 4.11 | 4.82 | 5.73 | 6.73 | 7.81 | 9.08
x2 = 0.5454 | 2.47 | 3.06 | 3.68 | 4.45 | 5.28 | 6.23 | 7.23 | 8.39 | 9.79
x2 = 0.7297 | 2.47 | 3.01 | 3.69 | 4.38 | 5.22 | 6.28 | 7.42 | 8.7 | 10

CCC(C(C)O)n1ncn(-c2ccc(N3CCN(c4ccc(OCC5COC(Cn6cncn6)(c6ccc(F)cc6F)C5)cc4)CC3)cc2)c1=O (configuration not stated) + CCOC(C)=O + CC(C)O
solubility (g/100 g solution)
Settings | 273.15 K | 278.15 K | 283.15 K | 288.15 K | 293.15 K | 298.15 K | 303.15 K | 308.15 K | 313.15 K
x2 = 0.07045 | 0.00869 | 0.0113 | 0.015 | 0.0192 | 0.0237 | 0.0294 | 0.0352 | 0.0423 | 0.0504
x2 = 0.1457 | 0.0114 | 0.0145 | 0.0186 | 0.023 | 0.0283 | 0.0344 | 0.0415 | 0.049 | 0.058
x2 = 0.2262 | 0.0148 | 0.0192 | 0.0245 | 0.0306 | 0.0374 | 0.0445 | 0.0524 | 0.0621 | 0.0721
x2 = 0.3126 | 0.0191 | 0.0242 | 0.0305 | 0.0373 | 0.0452 | 0.0542 | 0.0641 | 0.0753 | 0.0897
x2 = 0.4055 | 0.0249 | 0.0308 | 0.039 | 0.0482 | 0.0589 | 0.071 | 0.0837 | 0.0987 | 0.119
x2 = 0.5057 | 0.0321 | 0.0401 | 0.0493 | 0.0608 | 0.0728 | 0.0857 | 0.103 | 0.121 | 0.145
x2 = 0.6141 | 0.0354 | 0.0469 | 0.0581 | 0.0726 | 0.0862 | 0.101 | 0.118 | 0.14 | 0.164
x2 = 0.7318 | 0.0383 | 0.0499 | 0.0636 | 0.0793 | 0.0965 | 0.115 | 0.135 | 0.16 | 0.186
x2 = 0.8599 | 0.0405 | 0.0522 | 0.066 | 0.0819 | 0.101 | 0.12 | 0.142 | 0.166 | 0.193

Cc1ccc(Nc2nccc(N(C)c3ccc4c(C)n(C)nc4c3)n2)cc1S(N)(=O)=O + CCO + CC#N
solubility (g/100 g solution)
Settings | 288.15 K | 293.15 K | 298.15 K | 303.15 K | 308.15 K | 313.15 K | 318.15 K | 323.15 K | 328.15 K
x2 = 0.1822 | 0.0124 | 0.029 | 0.0444 | 0.063 | 0.0838 | 0.104 | 0.125 | 0.149 | 0.177
x2 = 0.3727 | 0.026 | 0.0514 | 0.0739 | 0.101 | 0.129 | 0.157 | 0.187 | 0.22 | 0.258
x2 = 0.572 | 0.0528 | 0.0704 | 0.0887 | 0.11 | 0.133 | 0.16 | 0.189 | 0.221 | 0.256
x2 = 0.7809 | 0.0195 | 0.035 | 0.0514 | 0.0677 | 0.086 | 0.104 | 0.123 | 0.145 | 0.17

O=C(CC(=O)c1ccccc1)c1ccccc1 + CCO + O
solubility (g/100 g solution)
Settings | 278.15 K | 283.15 K | 288.15 K | 293.15 K | 298.15 K | 303.15 K | 308.15 K | 313.15 K | 318.15 K
x2 = 0.2 | 0.0116 | 0.0406 | 0.0595 | 0.069 | 0.0786 | 0.0881 | 0.0946 | 0.177 | 0.129
x2 = 0.4 | 0.2 | 0.505 | 0.754 | 0.88 | 1.09 | 1.28 | 1.97 | 2.5 | 2.96
x2 = 0.6 | 0.577 | 0.706 | 0.904 | 1.13 | 1.47 | 2 | 2.12 | 2.61 | 3.89
x2 = 0.8 | 1.25 | 2.11 | 1.75 | 2.39 | 3.08 | 3.46 | 4.26 | 6.03 | 8.9

O=c1[nH]cc(F)c(=O)[nH]1 + O + C1CCOC1
solubility (g/100 g solution)
Settings | 283.15 K | 288.15 K | 293.15 K | 298.15 K | 303.15 K | 308.15 K | 313.15 K | 318.15 K | 323.15 K
x2 = 0.5001 | 0.119 | 0.145 | 0.171 | 0.198 | 0.236 | 0.281 | 0.337 | 0.424 | 0.513
x2 = 0.7273 | 0.219 | 0.264 | 0.307 | 0.36 | 0.423 | 0.498 | 0.61 | 0.721 | 0.868
x2 = 0.8572 | 0.382 | 0.44 | 0.504 | 0.585 | 0.675 | 0.811 | 0.97 | 1.08 | 1.3
x2 = 0.9412 | 0.615 | 0.702 | 0.795 | 0.91 | 1.05 | 1.22 | 1.45 | 1.74 | 1.93

COC(=O)C1=C(C)NC(C)=C(C(=O)OCC(C)C)C1c1ccccc1[N+](=O)[O-] (configuration not stated) + CCO + O
solubility (g/100 g solution)
Settings | 278.15 K | 283.15 K | 288.15 K | 293.15 K | 298.15 K | 303.15 K | 308.15 K | 313.15 K | 318.15 K
x2 = 0.08908 | 0.379 | 0.503 | 0.648 | 0.817 | 0.987 | 1.2 | 1.42 | 1.68 | 1.99
x2 = 0.2068 | 1.23 | 1.53 | 1.87 | 2.25 | 2.73 | 3.28 | 3.94 | 4.74 | 5.64
x2 = 0.3698 | 1.72 | 2.14 | 2.63 | 3.16 | 3.79 | 4.51 | 5.31 | 6.22 | 7.38
x2 = 0.6101 | 2.18 | 2.75 | 3.38 | 4.12 | 5 | 6 | 7.01 | 8.24 | 9.61

CN1CCN(C(=O)OC2c3nccnc3C(=O)N2c2ccc(Cl)cn2)CC1 (configuration not stated) + CCO + O
solubility (g/100 g solution)
Settings | x2 = 0.3 | x2 = 0.4 | x2 = 0.5 | x2 = 0.6 | x2 = 0.7 | x2 = 0.8 | x2 = 0.9
288.15 K | 0.129 | 0.242 | 0.377 | 0.527 | 0.59 | 0.511 | 0.375
298.15 K | 0.208 | 0.397 | 0.63 | 0.85 | 0.998 | 0.9 | 0.647
308.15 K | 0.296 | 0.666 | 1.02 | 1.32 | 1.43 | 1.3 | 0.911
318.15 K | 0.474 | 0.988 | 1.51 | 2.03 | 2.31 | 2.12 | 1.53
328.15 K | 0.818 | 1.65 | 2.51 | 3.27 | 3.65 | 3.31 | 2.53

CN1CCN(C(=O)OC2c3nccnc3C(=O)N2c2ccc(Cl)cn2)CC1 (configuration not stated) + CC#N + O
solubility (g/100 g solution)
Settings | x2 = 0.3 | x2 = 0.4 | x2 = 0.5 | x2 = 0.6 | x2 = 0.7 | x2 = 0.8 | x2 = 0.9
288.15 K | 0.593 | 1.13 | 2.08 | 2.78 | 3.27 | 3.38 | 2.87
298.15 K | 0.785 | 1.72 | 2.61 | 3.38 | 4.09 | 4.14 | 3.55
308.15 K | 0.997 | 2.11 | 3.4 | 4.41 | 5.3 | 5.38 | 4.63
318.15 K | 1.26 | 2.67 | 4.26 | 5.76 | 6.74 | 7.02 | 6.08
328.15 K | 1.77 | 3.23 | 5.56 | 7.47 | 8.64 | 8.93 | 8.18

CN1CCN(C(=O)OC2c3nccnc3C(=O)N2c2ccc(Cl)cn2)CC1 (configuration not stated) + C1CCOC1 + O
solubility (g/100 g solution)
Settings | x2 = 0.3 | x2 = 0.4 | x2 = 0.5 | x2 = 0.6 | x2 = 0.7 | x2 = 0.8 | x2 = 0.9
288.15 K | 0.41 | 0.79 | 1.33 | 2.06 | 2.8 | 3.32 | 3.83
298.15 K | 0.626 | 1.14 | 1.83 | 2.66 | 3.57 | 4.41 | 4.87
308.15 K | 0.91 | 1.54 | 2.43 | 3.54 | 4.53 | 5.71 | 6.18
318.15 K | 1.13 | 2 | 3.21 | 4.68 | 6.19 | 7.53 | 8.07
328.15 K | 1.47 | 2.59 | 4.15 | 6.16 | 8.4 | 9.55 | 9.98
